Reference: patent publication US20240124418A1 (BioTheryX, Inc., priority 2020, published 2024)

Tests used:
PDE4B = target: T1, PDE4B (Homo sapiens, UniProt Q07343); assay: Protein degradation assay, western blot, PDE4B in A549 cells; format: cell-based; conditions: 24 h treatment, 'as high as about' = upper value for the group, read-out: PDE4B degradation relative to DMSO
T1 construct: endogenous in cells; host or cells: A549
Protocol: Example B2. Protein Degradation Assay
A549 cells were grown in RPMI 1640 media supplemented with 10% fetal bovine serum, streptomycin, and penicillin. The cells were plated in 6-well plates at 300,000 cells/well in the growth media. After overnight incubation, the cells were treated with DMSO (control) or a compound at predetermined concentrations (e.g., 10 nM, 100 nM, 1 μM, 3 μM, or 10 μM) for 24 h at 37° C. under 5% CO2. Whole cell extracts were prepared using an immunoprecipitation (IP) lysis buffer. The cells were washed once in PBS, and the cell pellets were resuspended in the IP lysis buffer and incubated for 15 min on ice. Cells debris was removed by centrifugation and the cleared whole cell lysates were transferred to new tubes for further analysis.
For a western blot analysis, the whole cell protein extracts were separated on 4-12% SDS-polyacrylamide gels, transferred to nitrocellulose, and probed with primary antibodies. Membranes were subsequently washed and probed with IRDYE® secondary antibodies. The signals were detected using an ODYSSEY® Imaging System. The antibodies used in the assay included anti-PDE4B antibody; anti-PDE4D antibodies (top, bottom, and short isoform); β-actin mouse monoclonal antibody; IRDYE® 680RD goat anti-rabbit antibody; and IRDYE® 800CW goat anti-mouse antibody. The compounds provided herein are PDE4 protein degraders.

TNF-α = assay: Cell-based TNF-α inhibition assay (LPS-induced PBMCs, Meso Scale); conditions: PBMC, PBMCs pretreated 1 h, LPS 100 ng/mL 18-24 h, percentage of stimulated DMSO control; for inhibition at 0.1 µM: compound concentration 0.1 μM; for inhibition at 1 µM: compound concentration 1 μM
Protocol: Example B1. Cell-Based TNF-α Inhibition Assay
Frozen primary blood mononuclear cells (PBMCs) were quick thawed, washed once with RPMI 1640 media supplemented with 10% fetal bovine serum, 1% penicillin, and 1% streptomycin, and plated in a 96 well plate at 200,000 cells per well. The cells were pretreated with DMSO only as a control or a compound for 1 h, and then induced with LPS (lipopolysaccharide) (100 ng/mL) for 18-24 h. The supernatant was analyzed for TNF-α using the Meso Scale assay. Compound activity was determined as a percentage of the stimulated DMSO control. The results are summarized in Table 1, where A represents a percent inhibition value ≥60%; B represents a percent inhibition value <60% and ≥40%; C represents a percent inhibition value <40% and ≥20%; and D represents a single percent inhibition value <20%.

T1 sequence (Q07343 whole entry): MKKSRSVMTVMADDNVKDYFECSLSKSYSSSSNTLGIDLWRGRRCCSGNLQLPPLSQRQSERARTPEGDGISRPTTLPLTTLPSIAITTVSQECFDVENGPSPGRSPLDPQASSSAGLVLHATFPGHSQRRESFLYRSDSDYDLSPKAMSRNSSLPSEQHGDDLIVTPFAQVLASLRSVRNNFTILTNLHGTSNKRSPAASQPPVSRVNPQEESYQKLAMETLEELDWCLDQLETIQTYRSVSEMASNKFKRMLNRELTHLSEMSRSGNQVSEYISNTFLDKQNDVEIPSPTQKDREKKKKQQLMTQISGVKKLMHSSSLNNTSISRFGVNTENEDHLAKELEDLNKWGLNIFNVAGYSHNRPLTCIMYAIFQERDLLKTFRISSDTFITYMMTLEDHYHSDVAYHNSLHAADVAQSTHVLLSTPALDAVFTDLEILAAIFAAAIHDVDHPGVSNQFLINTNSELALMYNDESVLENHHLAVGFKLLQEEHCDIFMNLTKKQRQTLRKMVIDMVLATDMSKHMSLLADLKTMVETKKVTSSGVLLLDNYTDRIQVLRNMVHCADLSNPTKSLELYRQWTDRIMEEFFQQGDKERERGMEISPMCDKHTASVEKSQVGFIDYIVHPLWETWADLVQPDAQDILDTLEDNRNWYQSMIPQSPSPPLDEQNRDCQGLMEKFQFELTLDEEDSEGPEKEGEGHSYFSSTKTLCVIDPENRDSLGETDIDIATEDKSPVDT

Row | SMILES | Dmax (PDE4B) [%] | inhibition at 0.1 µM (TNF-α) [%] | inhibition at 1 µM (TNF-α) [%]
1 | CCOc1cc([C@@H](CS(C)(=O)=O)N2C(=O)c3cccc(NC(=O)CCCCCCCCCCCNc4cccc5c4C(=O)N(C4CCC(=O)NC4=O)C5=O)c3C2=O)ccc1OC (stereo partly drawn) [Compound A6, 12-((2-(2,6-Dioxopiperidin-3-yl)-1,3-dioxoisoindolin-4-yl)amino)-N-(2-((S)-1-(3-ethoxy-4-methoxyphenyl)-2-(methylsulfonyl)ethyl)-1,3-dioxoisoindolin-4-yl)dodecanamide] | ≤ 70 |  | 
2 | CCOc1cc([C@@H](CS(C)(=O)=O)N2C(=O)c3cccc(NC(=O)CCCCNCc4ccc(OCc5scc6c5CN(C5CCC(=O)NC5=O)C6=O)cc4)c3C2=O)ccc1OC (stereo partly drawn) [Compound A39, 5-((4-((5-(2,6-Dioxopiperidin-3-yl)-4-oxo-5,6-dihydro-4H-thieno[3,4-c]pyrrol-1-yl)methoxy)benzyl)amino)-N-(2-((S)-1-(3-ethoxy-4-methoxyphenyl)-2-(methylsulfonyl)ethyl)-1,3-dioxoisoindolin-4-yl)pentanamide] |  | ≥ 60 | 
3 | CCOc1cc([C@@H](CS(C)(=O)=O)N2C(=O)c3cccc(NC(=O)CCCCCCCCOc4cc(-c5scnc5C)ccc4CNC(=O)[C@@H]4C[C@@H](O)CN4C(=O)[C@@H](NC(C)=O)C(C)(C)C)c3C2=O)ccc1OC [Compound A74, (2S,4R)-1-[(2S)-2-Acetamido-3,3-dimethylbutanoyl]-N-[(2-{[8-({2-[(1S)-1-(3-ethoxy-4-methoxyphenyl)-2-methanesulfonylethyl]-1,3-dioxo-2,3-dihydro-1H-isoindol-4-yl}-carbamoyl)octyl]oxy}-4-(4-methyl-1,3-thiazol-5-yl)phenyl)methyl]-4-hydroxypyrrolidine-2-carboxamide] |  | ≥ 60 | ≥ 60
4 | CCOc1cc([C@@H](CS(C)(=O)=O)N2C(=O)c3cccc(NCC(=O)N4CCN(CCCCC(=O)N[C@H](C(=O)N5C[C@H](O)C[C@H]5C(=O)NCc5ccc(-c6scnc6C)cc5)C(C)(C)C)CC4)c3C2=O)ccc1OC [Compound A66, (2S,4R)-1-[(2S)-2-(5-{4-[2-({2-[(1S)-1-(3-Ethoxy-4-methoxyphenyl)-2-methanesulfonylethyl]-1,3-dioxo-2,3-dihydro-1H-isoindol-4-yl}amino)acetyl]piperazin-1-yl}pentan-amido)-3,3-dimethylbutanoyl]-4-hydroxy-N-{[4-(4-methyl-1,3-thiazol-5-yl)phenyl]methyl}-pyrrolidine-2-carboxamide] |  | 40 to 60 | ≥ 60
5 | CCOc1cc([C@@H](CS(C)(=O)=O)N2C(=O)c3cc(C#CCCCCCN4CCC(c5cc(F)cc6c5CN(C5CCC(=O)NC5=O)C6=O)CC4)cc(NC(C)=O)c3C2=O)ccc1OC (stereo partly drawn) [Compound A2, N-(6-(7-(4-(2-(2,6-Dioxopiperidin-3-yl)-6-fluoro-1-oxoisoindolin-4-yl)-piperidin-1-yl)hept-1-yn-1-yl)-2-((S)-1-(3-ethoxy-4-methoxyphenyl)-2-(methylsulfonyl)ethyl)-1,3-dioxoisoindolin-4-yl)acetamide] |  | ≥ 60 | 
6 | CCOc1cc([C@@H](CS(C)(=O)=O)N2C(=O)c3cccc(NC(=O)CCCc4cn(CCN5CCC(c6cc7c(cc6F)C(=O)N(C6CCC(=O)NC6=O)C7)CC5)nn4)c3C2=O)ccc1OC (stereo partly drawn) [Compound A24, 4-[1-(2-{4-[2-(2,6-Dioxopiperidin-3-yl)-6-fluoro-1-oxo-2,3-dihydro-1H-isoindol-5-yl]piperidin-1-yl}ethyl)-1H-1,2,3-triazol-4-yl]-N-{2-[(1S)-1-(3-ethoxy-4-methoxyphenyl)-2-methanesulfonylethyl]-1,3-dioxo-2,3-dihydro-1H-isoindol-4-yl}butanamide] |  | ≥ 60 | ≥ 60
7 | CCOc1cc([C@@H](CS(C)(=O)=O)N2C(=O)c3cccc(NC(=O)CCCCN4CCN(CC(=O)N[C@H](C(=O)N5C[C@H](O)C[C@H]5C(=O)NCc5ccc(-c6scnc6C)cc5)C(C)(C)C)CC4)c3C2=O)ccc1OC [Compound A63, (2S,4R)-1-[(2S)-2-(2-{4-[4-({2-[(1S)-1-(3-Ethoxy-4-methoxyphenyl)-2-methanesulfonylethyl]-1,3-dioxo-2,3-dihydro-1H-isoindol-4-yl}carbamoyl)butyl]piperazin-1-yl}acet-amido)-3,3-dimethylbutanoyl]-4-hydroxy-N-{[4-(4-methyl-1,3-thiazol-5-yl)phenyl]methyl}-pyrrolidine-2-carboxamide] |  | ≥ 60 | ≥ 60
8 | CCOc1cc([C@@H](CS(C)(=O)=O)N2C(=O)c3cccc(NC(=O)CCCCCCCCCN4CCN(CC(=O)Nc5ccc6c(C7CCC(=O)NC7=O)nn(C)c6c5)CC4)c3C2=O)ccc1OC (stereo partly drawn) [Compound A79, 10-[4-({[3-(2,6-Dioxopiperidin-3-yl)-1-methyl-1H-indazol-6-yl]carbamoyl}-methyl)piperazin-1-yl]-N-{2-[(1S)-1-(3-ethoxy-4-methoxyphenyl)-2-methanesulfonylethyl]-1,3-dioxo-2,3-dihydro-1H-isoindol-4-yl}decanamide] |  | ≥ 60 | ≥ 60
9 | CCOc1cc([C@@H](CS(C)(=O)=O)N2C(=O)c3cccc(CCCCCCCCCCNCc4ccc(OCc5scc6c5CN(C5CCC(=O)NC5=O)C6=O)cc4)c3C2=O)ccc1OC (stereo partly drawn) [Compound A49, 4-(10-{[(4-{[5-(2,6-Dioxopiperidin-3-yl)-4-oxo-4H,5H,6H-thieno[3,4-c]pyrrol-1-yl]methoxy}phenyl)methyl]amino}decyl)-2-[(1S)-1-(3-ethoxy-4-methoxyphenyl)-2-methanesulfonylethyl]-2,3-dihydro-1H-isoindole-1,3-dione] |  | ≥ 60 | ≥ 60
10 | CCOc1cc([C@@H](CS(C)(=O)=O)N2C(=O)c3cccc(NC(=O)CCCCCCCN4CCN(CC(=O)Nc5ccc6c(C7CCC(=O)NC7=O)nn(C)c6c5)CC4)c3C2=O)ccc1OC (stereo partly drawn) [Compound A77, 8-[4-({[3-(2,6-Dioxopiperidin-3-yl)-1-methyl-1H-indazol-6-yl]carbamoyl}-methyl)piperazin-1-yl]-N-{2-[(1S)-1-(3-ethoxy-4-methoxyphenyl)-2-methanesulfonylethyl]-1,3-dioxo-2,3-dihydro-1H-isoindol-4-yl}octanamide] |  | ≥ 60 | ≥ 60
11 | CCOc1cc([C@@H](CS(C)(=O)=O)N2C(=O)c3cccc(NCCc4ccc(CCCCNCc5ccc(OCc6scc7c6CN(C6CCC(=O)NC6=O)C7=O)cc5)cc4)c3C2=O)ccc1OC (stereo partly drawn) [Compound A51, 4-({2-[4-(4-{[(4-{[5-(2,6-Dioxopiperidin-3-yl)-4-oxo-4H,5H,6H-thieno[3,4-c]-pyrrol-1-yl]methoxy}phenyl)methyl]amino}butyl)phenyl]ethyl}amino)-2-[(1S)-1-(3-ethoxy-4-methoxyphenyl)-2-methanesulfonylethyl]-2,3-dihydro-1H-isoindole-1,3-dione] |  | ≥ 60 | ≥ 60
12 | CCOc1cc([C@@H](CS(C)(=O)=O)N2C(=O)c3cccc(NC(=O)CCCCCCCCN4CCC(c5ccc6c(c5)CN(C5CCC(=O)NC5=O)C6=O)CC4)c3C2=O)ccc1OC (stereo partly drawn) [Compound A26, 9-{4-[2-(2,6-Dioxopiperidin-3-yl)-1-oxo-2,3-dihydro-1H-isoindol-5-yl]piperidin-1-yl}-N-{2-[(1S)-1-(3-ethoxy-4-methoxyphenyl)-2-methanesulfonylethyl]-1,3-dioxo-2,3-dihydro-1H-isoindol-4-yl}nonanamide] |  | ≥ 60 | ≥ 60
13 | CC(=O)NC(=O)C(C)N1Cc2c(cc(F)cc2C2CCN(CCCCCCCCCOc3cc(C(=O)Nc4c(Cl)cncc4Cl)ccc3OC(F)F)CC2)C1=O (stereo not shown) [Compound B13, 3-((9-(4-(2-(1-Acetamido-1-oxopropan-2-yl)-6-fluoro-1-oxoisoindolin-4-yl)piperidin-1-yl)nonyl)oxy)-N-(3,5-dichloropyridin-4-yl)-4-(difluoromethoxy)benzamide] |  | ≥ 60 | ≥ 60
14 | CCOc1cc([C@@H](CS(C)(=O)=O)N2C(=O)c3cccc(NC(=O)CCCc4cn(CCNCc5ccc(OCc6scc7c6CN(C6CCC(=O)NC6=O)C7=O)cc5)nn4)c3C2=O)ccc1OC (stereo partly drawn) [Compound A48, 4-[1-(2-{[(4-{[5-(2,6-Dioxopiperidin-3-yl)-4-oxo-4H,5H,6H-thieno[3,4-c]pyrrol-1-yl]methoxy}phenyl)methyl]amino}ethyl)-1H-1,2,3-triazol-4-yl]-N-{2-[(1S)-1-(3-ethoxy-4-methoxyphenyl)-2-methanesulfonylethyl]-1,3-dioxo-2,3-dihydro-1H-isoindol-4-yl}butanamide] |  | 40 to 60 | ≥ 60
